Assay results published in US12589169B2, “Compound and MRI contrast agent containing same” (KYUNGPOOK NATIONAL UNIVERSITY INDUSTRY-ACADEMIC COOPERATION …, priority 2020, dated 2026).

Key:
[1] = magnetic relaxation rates (MRI contrast effect); format: physicochemical; conditions: magnetic relaxation rate; field strength not stated for Table 1
Protocol: In order to examine the MRI contrast effects of the compounds (Gd-suc, Gd-glu) and commercially available MRI contrast agents according to Examples of the present invention, the magnetic relaxation rates and lipophilicity were analyzed, and the results are shown in Table 1 below.
The magnetic relaxation rate (mM^−ls^−1) is a parameter indicating contrast efficiency per unit concentration, and in the case of a T1 contrast agent, the r2/r1 ratio is known to have a value of 0.5 to 1.5.

Balb/C mice = assay: in vivo MRI contrast effect (abdominal T1 weighted images); conditions: 0.1 mmol/kg, 4.7 T, FIG. 14
Protocol: The liver-specific T1 contrast effect of the compounds (Gd-suc, Gd-glu) according to embodiments of the present invention and Primovist, a commercially available liver contrast agent, was evaluated in small animals (Balb/C mice, male, 5 w, 25 g, 0.1 mmol/kg) and confirmed through abdominal T1 weighted images (Bruker, 4.7 T), and the results are shown in FIGS. 12 to 15.

AML12 cell line = assay: in vitro cell-viability test (CCK method); format: cell-based; conditions: AML12 normal hepatocytes, 24 hours; FIG. 16
Protocol: In order to confirm the presence or absence of cytotoxicity in normal hepatocytes, Gd-suc (i.e., a compound according to an embodiment of the present invention) and Primovist and Multihance (i.e., commercially available liver contrast agents) were treated on the AML12 cell line at various concentrations, and cell viability after 24 hours was analyzed by a known CCK method, and the results are shown in FIG. 16.

Row | Structure (SMILES) | r1 [1] | r2 [1] | contrast enhancing effect in the gall bladder (Balb/C mice) | cytotoxicity (AML12 cell line)
1 | O=C([O-])CN1CCN(CC(=O)[O-])CCN([C@H](CO)[C@H](O)CO)CCN(CC(=O)[O-])CC1.[Gd+3] (racemic) [Gadovist] | 4.12 ± 0.028 mM^−ls^−1 | 4.60 ± 0.025 mM^−ls^−1 |  | 
2 | CNC[C@H](O)[C@@H](O)[C@H](O)[C@H](O)CO.O=C([O-])CN1CCN(CC(=O)[O-])CCN(CC(=O)O)CCN(CC(=O)[O-])CC1.[Gd+3] [Dotarem, Gd-DOTA] | 4.19 ± 0.014 mM^−ls^−1 | 4.75 ± 0.016 mM^−ls^−1 |  | 
3 | CCOc1ccc(CN2CCN(CC(=O)[O-])CCN(C(CCC(=O)[O-])C(=O)[O-])CCN(CC(=O)[O-])CC2)cc1.[Gd+3] (stereo not shown) [Gd-glu] | 8.41 ± 0.084 mM^−ls^−1 | 9.92 ± 0.081 mM^−ls^−1 | exhibited a contrast enhancing effect in the gall bladder | 
4 | CNC[C@H](O)[C@@H](O)[C@H](O)[C@H](O)CO.CNC[C@H](O)[C@@H](O)[C@H](O)[C@H](O)CO.O=C([O-])CN(CCN(CC(=O)[O-])CC(=O)O)CCN(CC(=O)[O-])CC(=O)O.[Gd+3] [Magnevist] | 3.57 ± 0.007 mM^−ls^−1 | 4.95 ± 0.18 mM^−ls^−1 |  | 
5 | CNC[C@H](O)[C@@H](O)[C@H](O)[C@H](O)CO.CNC[C@H](O)[C@@H](O)[C@H](O)[C@H](O)CO.O=C([O-])CN(CCN(CC(=O)[O-])CC(=O)O)CCN(CC(=O)O)C(COCc1ccccc1)C(=O)[O-].[Gd+3] (stereo not shown) [Multihance] | 5.09 ± 0.015 mM^−ls^−1 | 6.79 ± 0.38 mM^−ls^−1 |  | significant cytotoxicity
6 | CNC(=O)CN(CCN(CCN(CC(=O)[O-])CC(=O)NC)CC(=O)[O-])CC(=O)[O-].[Gd+3] [Omniscan] | 3.58 ± 0.014 mM^−ls^−1 | 4.46 ± 0.024 mM^−ls^−1 |  | 
7 | CCOc1ccc(CC(CN(CCN(CC(=O)[O-])CC(=O)[O-])CC(=O)[O-])N(CC(=O)[O-])CC(=O)[O-])cc1.[Gd+3].[Na+].[Na+] (stereo not shown) [Primovist] | 6.51 ± 0.040 mM^−ls^−1 | 7.31 ± 0.42 mM^−ls^−1 |  | significant cytotoxicity
8 | CC(O)CN1CCN(CC(=O)[O-])CCN(CC(=O)[O-])CCN(CC(=O)[O-])CC1.[Gd+3] (stereo not shown) [Prohance] | 3.58 ± 0.017 mM^−ls^−1 | 4.58 ± 0.071 mM^−ls^−1 |  | 
